Laboratory results as given in ChEMBL document CHEMBL3885881, “DrugMatrix”.

Species: Rattus norvegicus
Assay: DrugMatrix - Regimen: Daily Repeat
Assay type: toxicity, organism-based, Sprague-Dawley
Design: regimen Daily Repeat, gender Male, age 6-8 weeks
Conditions: in vivo, po, 3 mg/kg, route oral GAVAGE, dose level Low, vehicle .5 % CMC; for ABSOLUTE BASOPHIL / ABSOLUTE EOSINOPHIL / ABSOLUTE LYMPHOCYTE / ABSOLUTE MONOCYTE / ABSOLUTE SEGMENTED NEUTROPHIL / BASOPHIL / EOSINOPHIL / ERYTHROCYTE COUNT / HEMATOCRIT / HEMOGLOBIN / LEUKOCYTE COUNT / LYMPHOCYTE / MEAN CORPUSCULAR HEMOGLOBIN / MEAN CORPUSCULAR HEMOGLOBIN CONCENTRATION / MEAN CORPUSCULAR VOLUME / MONOCYTE / NEUTROPHIL / NUCLEATED RED BLOOD CELLS / PLATELET COUNT: tissue Blood; for ALANINE AMINOTRANSFERASE / ALBUMIN / ALKALINE PHOSPHATASE / ASPARTATE AMINOTRANSFERASE / BLOOD UREA NITROGEN / CARBON DIOXIDE / CHLORIDE / CHOLESTEROL / CREATINE PHOSPHOKINASE / CREATININE / GLUCOSE / LACTATE DEHYDROGENASE / LIPASE / PHOSPHORUS / POTASSIUM / SODIUM / TOTAL BILIRUBIN / TOTAL PROTEIN / URIC ACID: tissue Plasma

SMILES: C=CC[C@@H]1/C=C(\C)C[C@H](C)C[C@H](OC)[C@H]2O[C@@](O)(C(=O)C(=O)N3CCCC[C@H]3C(=O)O[C@H](/C(C)=C/[C@@H]3CC[C@@H](O)[C@H](OC)C3)[C@H](C)[C@@H](O)CC1=O)[C@H](C)C[C@@H]2OC [TACROLIMUS ANHYDROUS]
- ABSOLUTE BASOPHIL (72 h, time 3 day): 0 CELLS/uL
- ABSOLUTE EOSINOPHIL (72 h, time 3 day): 115.33 CELLS/uL
- ABSOLUTE LYMPHOCYTE (72 h, time 3 day): 12942.67 CELLS/uL
- ABSOLUTE MONOCYTE (72 h, time 3 day): 191 CELLS/uL
- ABSOLUTE SEGMENTED NEUTROPHIL (72 h, time 3 day): 1684.33 CELLS/uL
- BASOPHIL (72 h, time 3 day): 0%
- EOSINOPHIL (72 h, time 3 day): 0.67%
- ERYTHROCYTE COUNT (72 h, time 3 day): 5.73 x10E6/uL
- HEMATOCRIT (72 h, time 3 day): 36.53%
- HEMOGLOBIN (72 h, time 3 day): 13.97 G/DL
- LEUKOCYTE COUNT (72 h, time 3 day): 14.93 x10E3/uL
- LYMPHOCYTE (72 h, time 3 day): 86.67%
- MEAN CORPUSCULAR HEMOGLOBIN (72 h, time 3 day): 24.37 pg
- MEAN CORPUSCULAR HEMOGLOBIN CONCENTRATION (72 h, time 3 day): 38.27 G/DL
- MEAN CORPUSCULAR VOLUME (72 h, time 3 day): 63.77 fL
- MONOCYTE (72 h, time 3 day): 1.33%
- NEUTROPHIL (72 h, time 3 day): 11.33%
- NUCLEATED RED BLOOD CELLS (72 h, time 3 day): 0 /100WBC
- PLATELET COUNT (72 h, time 3 day): 1252.33 x10E3/uL
- ALANINE AMINOTRANSFERASE (72 h, time 3 day): 50.67 u/L
- ALBUMIN (72 h, time 3 day): 4.1 G/DL
- ALKALINE PHOSPHATASE (72 h, time 3 day): 348.33 u/L
- ASPARTATE AMINOTRANSFERASE (72 h, time 3 day): 75.67 u/L
- BLOOD UREA NITROGEN (72 h, time 3 day): 16.33 mg/dL
- CARBON DIOXIDE (72 h, time 3 day): 31.67 mmol/L
- CHLORIDE (72 h, time 3 day): 99.33 MEQ/L
- CHOLESTEROL (72 h, time 3 day): 79 mg/dL
- CREATINE PHOSPHOKINASE (72 h, time 3 day): 194.33 u/L
- CREATININE (72 h, time 3 day): 0.26 mg/dL
- GLUCOSE (72 h, time 3 day): 149.33 mg/dL
- LACTATE DEHYDROGENASE (72 h, time 3 day): 133.33 u/L
- LIPASE (72 h, time 3 day): 9.33 u/L
- PHOSPHORUS (72 h, time 3 day): 12.63 mg/dL
- POTASSIUM (72 h, time 3 day): 6.77 MEQ/L
- SODIUM (72 h, time 3 day): 144.97 MEQ/L
- TOTAL BILIRUBIN (72 h, time 3 day): 0.2 mg/dL
- TOTAL PROTEIN (72 h, time 3 day): 5.83 G/DL
- URIC ACID (72 h, time 3 day): 1.67 mg/dL
- ABSOLUTE BASOPHIL (120 h, time 5 day): 0 CELLS/uL
- ABSOLUTE EOSINOPHIL (120 h, time 5 day): 0 CELLS/uL
- ABSOLUTE LYMPHOCYTE (120 h, time 5 day): 15415.33 CELLS/uL
- ABSOLUTE MONOCYTE (120 h, time 5 day): 188 CELLS/uL
- ABSOLUTE SEGMENTED NEUTROPHIL (120 h, time 5 day): 1663.33 CELLS/uL
- BASOPHIL (120 h, time 5 day): 0%
- EOSINOPHIL (120 h, time 5 day): 0%
- ERYTHROCYTE COUNT (120 h, time 5 day): 5.95 x10E6/uL
- HEMATOCRIT (120 h, time 5 day): 36.57%
- HEMOGLOBIN (120 h, time 5 day): 14.1 G/DL
- LEUKOCYTE COUNT (120 h, time 5 day): 17.27 x10E3/uL
- LYMPHOCYTE (120 h, time 5 day): 89.33%
- MEAN CORPUSCULAR HEMOGLOBIN (120 h, time 5 day): 23.77 pg
- MEAN CORPUSCULAR HEMOGLOBIN CONCENTRATION (120 h, time 5 day): 38.57 G/DL
- MEAN CORPUSCULAR VOLUME (120 h, time 5 day): 61.53 fL
- MONOCYTE (120 h, time 5 day): 1%
- NEUTROPHIL (120 h, time 5 day): 9.67%
- NUCLEATED RED BLOOD CELLS (120 h, time 5 day): 0 /100WBC
- PLATELET COUNT (120 h, time 5 day): 1336 x10E3/uL
- ALANINE AMINOTRANSFERASE (120 h, time 5 day): 51.33 u/L
- ALBUMIN (120 h, time 5 day): 4.23 G/DL
- ALKALINE PHOSPHATASE (120 h, time 5 day): 303 u/L
- ASPARTATE AMINOTRANSFERASE (120 h, time 5 day): 80 u/L
- BLOOD UREA NITROGEN (120 h, time 5 day): 17 mg/dL
- CARBON DIOXIDE (120 h, time 5 day): 27.67 mmol/L
- CHLORIDE (120 h, time 5 day): 101.67 MEQ/L
- CHOLESTEROL (120 h, time 5 day): 81 mg/dL
- CREATINE PHOSPHOKINASE (120 h, time 5 day): 231 u/L
- CREATININE (120 h, time 5 day): 0.2 mg/dL
- GLUCOSE (120 h, time 5 day): 164 mg/dL
- LACTATE DEHYDROGENASE (120 h, time 5 day): 171.67 u/L
- LIPASE (120 h, time 5 day): 9.33 u/L
- PHOSPHORUS (120 h, time 5 day): 13.2 mg/dL
- POTASSIUM (120 h, time 5 day): 6.36 MEQ/L
- SODIUM (120 h, time 5 day): 144.37 MEQ/L
- TOTAL BILIRUBIN (120 h, time 5 day): 0.2 mg/dL
- TOTAL PROTEIN (120 h, time 5 day): 6.13 G/DL
- URIC ACID (120 h, time 5 day): 1.73 mg/dL
